These results are taken from a melting point compilation (Tetko et al.; mined from patent text by program, amines drawn as free bases though some values may be those of a salt).

The compound `CCOC(=O)C1=NN(C(=O)c2ccccc2)C(C(=O)OCC)=NN1C(=O)c1ccccc1` came in with a melting point of 134 °C.

`CC(=O)c1cc2cccc(OC3SCC(O)C(O)C3O)c2o1` (stereo not drawn) yielded a melting point of 116 to 120 °C.

Turning to `CCc1cc(NC(=O)c2cccs2)cc(CC)c1O`, the melting point was in the range of 190 to 192 °C.

Compound `Cc1ccc(S(=O)(=O)N2CCC[C@H]2CN2CCN(C)CC2)cc1` displayed a melting point of 96.5 to 97.7 °C.

As to `CS(=O)(=O)c1ccc(-c2sc(-c3ccccc3Cl)nc2-c2ccccc2Cl)cc1`, the melting point lay within 143 to 147 °C.

Regarding `Cc1ncc([N+](=O)[O-])n1CCN1C(=O)NC(c2ccccc2)(c2ccccc2)C1=O`, the melting point lay in the range of 209 to 210 °C.

In turn, `CCCCCCCCCCCCNS(=O)(=O)c1cccc(C(F)(F)F)c1` came in with a melting point of 65 to 68 °C.

In turn, `CN1CC(=O)N2[C@H](c3ccc4c(c3)CCN4)c3[nH]c4ccccc4c3C[C@@H]2C1=O` had a melting point of 240 °C.

`O=C(CC1CCCC1)NC[C@H]1CN(c2ccc3c(c2)CCCc2cnn(C(=O)CC4CCCC4)c2-3)C(=O)O1` had a melting point of 165 to 167 °C.

`COc1cn(-c2ccc(-n3cc(F)c(F)c3)cc2F)nc(-c2ccnn2-c2ccccc2)c1=O` yielded a melting point of 212 to 214 °C.

For `NC(=O)N(O)Cc1ccc2c(c1)CCN2Cc1ccccc1`, the melting point turned out to be 107 °C.

The compound `COc1ccc2[nH]c3c(c2c1)C[C@@]1(C)C(=O)N(CCN2CCN(C)CC2)C(=O)N1[C@@H]3c1cccc(O)c1` (racemic) registered a melting point of 224 to 227 °C.

`CCC(Nc1cc(C)nc(Oc2c(C)cc(C)cc2C)c1C(=O)OC)C(C)O` (stereo not drawn) registered a melting point of 116 to 120 °C.

`CC(O)CNC(=O)c1cc2ccccc2o1` (stereo not drawn) registered a melting point of 90 to 91 °C.

Compound `Cc1cc(Oc2ccc(C(F)(F)F)cc2Cl)cc(Cl)n1` registered a melting point of 75 °C.

In turn, `C=CCOc1ccccc1-c1ncc(C(=O)OCC)c(=O)[nH]1` registered a melting point of 118 to 120 °C.

Turning to `CSc1ccc2[nH]c(=O)oc(=O)c2c1`, the melting point fell in the range of 216 to 218 °C.

Take `COc1cc(C(=O)N2Cc3ccc(C(=O)NCCC(c4ccccc4)c4ccccc4)n3Cc3ccccc32)ccc1-c1ccccc1C`: the melting point came to 214 °C.

`N#Cc1cnc2c(sc3c(N)cccc32)c1Nc1cccc(Br)c1` had a melting point of 256 to 258 °C.

`CC(C)N(O)C(=O)Nc1cccc(S(C)(=O)=O)c1` had a melting point of 168 to 169 °C.

In the case of `CCOC(=O)c1cc(=O)c2ccc(N)cc2o1`, the melting point lay within 192 to 194 °C.

Turning to `CCOC(=O)c1cn2c3c(cc(C)cc3c1=O)OCC2C` (stereo not drawn), the melting point was in the range of 195 to 197 °C.

`O=C1C2Cc3c(ncn3Cc3ccccc3)CN2C(=S)N1c1ccccc1` (stereo not drawn) had a melting point of 224 to 226 °C.

In the case of `CCN(CC)CCCNc1nnc(COC)c2c1cc1n2CCCC1`, the melting point was 145 to 147 °C.

Turning to `CC(C)=NOc1cc(Cl)ccc1C#N`, the melting point lay in the range of 83 to 84 °C.

`Cc1ncnc2nc(N)c(-c3c(Cl)cccc3Cl)cc12` showed a melting point of 280 to 282 °C.

Turning to `Cc1ccc(N2CCN(Cc3n[nH]c4ccccc34)CC2)cc1`, the melting point was 176 to 177 °C.

In turn, `C=CCc1cn2c(=O)c(C(=O)OCC)cnc2c2cc(OC)ccc12` returned a melting point of 182 to 186 °C.

Compound `CCOC(=O)C(=CNc1nnn[nH]1)C(=O)c1cc(F)c(Cl)nc1Cl` showed a melting point of 150 to 152 °C.

In turn, `COc1ccc(NC(=O)c2ccc(-c3ccc(-c4nc(N)no4)cc3C)cc2)cc1N1CCN(C)CC1` had a melting point of 169 to 171 °C.

On to `O=C1C(=O)c2ccccc2C2=C1SCC1(CCN(CC(O)CN3CCOCC3)CC1)O2` (stereo not drawn), for which the melting point fell in the range of 75 to 78 °C.

`COc1ccccc1-c1nc(=O)c2ccccc2s1` returned a melting point of 144 °C.

Compound `O=C(Cc1ccc(F)cc1F)c1ccc(I)cc1F` returned a melting point of 81 to 82 °C.

As for `COc1cc(C(=O)CCCN2CCC(OC(=O)c3cc(Cl)c(N)c4cc(C)oc34)CC2)cc(OC)c1OC`, the melting point amounted to 129 °C.

`COc1cc2c(cc1[N+](=O)[O-])NC(=O)CN(C(=O)OCc1ccccc1)C2` gave a melting point of 191 °C.

The compound `CN(CCc1cccc(OCC(=O)O)c1)c1cnc(-c2ccccc2)c(-c2ccccc2)n1` displayed a melting point of 174 to 176 °C.

`CC(CCNC(=O)CC#N)NC(=O)CC#N` (stereo not drawn) yielded a melting point of 145 °C.

`O=C(NOCCNc1ccccc1)c1ccc(F)c(F)c1Nc1ccc(I)cc1Cl` gave a melting point of 158 °C.

As to `CCOc1ccc(C(c2ccc(C(C)(C)C)cc2)C(C)Cl)cc1` (stereo not drawn), the melting point lay in the range of 74 to 75 °C.

Compound `Cc1sc2cc(C(=O)NCC3(SCc4ccccc4)CCNCC3)[nH]c2c1N(C)S(=O)(=O)c1cccs1` gave a melting point of 222 °C.

For the compound `CCOc1cc([C@@H](CS(C)(=O)=O)N2Cc3cccc(NCC4CC4)c3C2=O)ccc1OC`, the melting point was 147 to 149 °C.

Take `CCNc1cc(-c2c[nH]cn2)ccn1`: the melting point is 135 to 137 °C.

As for `CC(C)NCC(O)COc1ccccc1-c1ccc(=S)[nH]n1` (stereo not drawn), the melting point fell in the range of 166 to 168 °C.

For `CCC1(CC)CCSc2c(CC#Cc3ccc(C=O)cc3)cccc21`, the melting point was 55 to 63 °C.

On to `CN1CCSC1=NC(=Nc1ccccc1)N1CCCCC1`, for which the melting point lay within 122 to 124 °C.

The compound `NCCCCn1c(-c2ccccc2)nc2c(N)nc3ccccc3c21` returned a melting point of 175 to 177 °C.

The compound `Fc1ccc(-c2ccc(C(F)(F)F)cn2)cc1` yielded a melting point of 38 to 40 °C.

In turn, `CC(C(=O)NCCCC(F)(F)F)(c1ccccc1)c1ccccc1` showed a melting point of 82 °C.

With `CNC(=O)c1cc2c(cn1)[nH]c1ccccc12`, the melting point was 264 to 266 °C.

Consider `Cn1nc(-c2ccccc2)c(Oc2ccc(N)cc2)c1-c1ccccc1`, for which the melting point fell in the range of 167 to 169 °C.

Regarding `CC1CON2C(=O)c3cc(Cl)ccc3OC2C1` (stereo not drawn), the melting point was 121 to 140 °C.

Turning to `COc1nc2cc(Cl)c(C)c(N)c2nc1OC`, the melting point lay within 181 to 182 °C.

`C=CCN(CC=C)c1nc(N(CC=C)CC=C)nc(N2CCN(C(=O)NC(c3ccccc3)c3ccccc3)CC2)n1` displayed a melting point of 158 to 159 °C.

Consider `C=C(COC1CC2C3CCC4=CC(=O)CCC4(C)C3(F)C(O)CC2(C)C1(O)C(=O)CO)c1ccccc1` (stereo not drawn), for which the melting point lay in the range of 169 to 171 °C.

In the case of `COc1ccc([C@@H](CO)[C@H]2CCCCN2C(=O)OC(C)(C)C)cc1`, the melting point lay in the range of 115 to 117 °C.

`Cc1cccc(C)c1N(Cn1cc(C(C)C)cn1)C(=O)CCl` gave a melting point of 58 °C.

`CNC(=NCCCSCc1[nH]cnc1C)NC#N` yielded a melting point of 156 to 158 °C.

`CCCCCCC(C)(O)CCc1ccc(O)c(O)c1` (stereo not drawn): the melting point lay in the range of 81 to 83 °C.

As to `N#Cc1c(-c2sc(Cl)c(Cl)c2Cl)[nH]c(C(F)(F)F)c1Br`, the melting point was in the range of 221 to 224 °C.

Consider `CC(C#N)(CNC(=O)c1nn(C2CCCCO2)cc1NC(=O)c1ccccn1)Cc1ccccc1` (stereo not drawn), for which the melting point lay within 187 to 190 °C.

In turn, `COc1ccc(OCCCN2CCC(C(O)(c3ccc(F)cc3)c3ccc(F)cc3)CC2)cc1` returned a melting point of 107 to 108 °C.

Compound `Cc1c2n(c3ccccc13)C(=O)N(Cc1ncn(C(c3ccccc3)(c3ccccc3)c3ccccc3)c1C)CC2` gave a melting point of 210 to 220 °C.

In turn, `CNC(=O)C1=C(c2ccccc2)OC(c2ccccc2)CC1=O` (stereo not drawn) had a melting point of 212 to 214 °C.

Usually melting point stands for the temperature, or range, at which the solid turns liquid.
